{
  "source": "patent US8853392B2",
  "about": "“Benzamide mGluR5 positive allosteric modulators and methods of making and using same” (Vanderbilt University, priority 2007, dated 2014)",
  "data": [
    {"molecular_target": "T1, rat mGluR5 (Rattus norvegicus, UniProt P31424)", "T1 construct": "expressed in transfected cells; host or cells: human embryonic kidney (HEK) cells", "T1 sequence (P31424 21-1203)": "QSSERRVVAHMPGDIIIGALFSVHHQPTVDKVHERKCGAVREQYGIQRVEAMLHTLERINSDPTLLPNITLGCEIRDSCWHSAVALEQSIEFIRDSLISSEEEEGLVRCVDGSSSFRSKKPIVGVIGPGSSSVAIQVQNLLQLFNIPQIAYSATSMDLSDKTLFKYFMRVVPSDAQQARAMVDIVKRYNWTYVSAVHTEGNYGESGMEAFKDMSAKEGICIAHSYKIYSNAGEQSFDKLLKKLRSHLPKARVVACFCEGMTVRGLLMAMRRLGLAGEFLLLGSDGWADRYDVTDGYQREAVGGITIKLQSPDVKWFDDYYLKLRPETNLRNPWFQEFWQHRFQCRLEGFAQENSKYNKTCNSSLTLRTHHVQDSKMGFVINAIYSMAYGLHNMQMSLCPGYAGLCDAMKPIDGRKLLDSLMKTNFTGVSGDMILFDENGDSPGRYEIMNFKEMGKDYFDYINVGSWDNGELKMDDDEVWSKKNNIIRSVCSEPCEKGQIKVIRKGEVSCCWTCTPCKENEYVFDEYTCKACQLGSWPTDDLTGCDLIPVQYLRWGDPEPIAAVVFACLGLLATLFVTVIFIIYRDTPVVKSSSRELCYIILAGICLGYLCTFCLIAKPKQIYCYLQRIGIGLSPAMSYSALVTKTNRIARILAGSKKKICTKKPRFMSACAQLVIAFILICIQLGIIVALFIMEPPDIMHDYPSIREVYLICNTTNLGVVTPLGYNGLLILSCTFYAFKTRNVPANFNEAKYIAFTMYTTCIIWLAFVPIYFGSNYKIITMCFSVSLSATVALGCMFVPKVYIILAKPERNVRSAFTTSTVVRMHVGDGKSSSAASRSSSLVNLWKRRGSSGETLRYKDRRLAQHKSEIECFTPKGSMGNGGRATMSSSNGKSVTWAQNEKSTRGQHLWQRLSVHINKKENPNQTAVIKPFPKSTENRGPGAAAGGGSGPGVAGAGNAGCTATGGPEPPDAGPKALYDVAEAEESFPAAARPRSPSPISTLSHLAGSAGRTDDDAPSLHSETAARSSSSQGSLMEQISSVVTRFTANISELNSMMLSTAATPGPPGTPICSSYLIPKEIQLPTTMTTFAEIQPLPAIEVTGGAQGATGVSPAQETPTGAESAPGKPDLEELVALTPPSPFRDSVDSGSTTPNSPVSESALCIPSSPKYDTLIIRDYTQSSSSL", "assay": "potentiation of mGluR5 response to glutamate, Ca2+ fluorescence (FDSS) in HEK cells transfected with rat mGluR5", "format": "cell-based", "settings": "HEK293; maximum extent of potentiation, normalized to maximal response to glutamate; SAR tables; read-out: % Glu Max", "experimental": "(§1) Human embryonic kidney (HEK) cells transfected with rat mGluR5 were plated in clear bottom assay plates for assay in a Functional Drug Screening System (FDSS). The cells were loaded with a Ca^2+-sensitive fluorescent dye (e.g., Fluo-4), and the plates were washed and placed in the FDSS instrument. After establishment of a fluorescence baseline for twelve seconds, the compounds of the present invention were added to the cells, and the response in cells was measured. Five minutes later, an mGluR5 agonist (e.g., glutamate, 3,5-dihydroxyphenylglycine, or quisqualate) was added to the cells, and the response of the cells was measured. Potentiation of the agonist response of mGluR5 by the compounds in the present invention was observed as an increase in response to non-maximal concentrations of agonist (here, glutamate) in the presence of compound compared to the response to agonist in the absence of compound.\n(§2) The above described assay operated in two modes. In the first mode, a range of concentrations of the present compounds were added to cells, followed by a single fixed concentration of agonist. If a compound acted as a potentiator, an EC50 value for potentiation and a maximum extent of potentiation by the compound at this concentration of agonist was determined by non-linear curve fitting. In the second mode, several fixed concentrations of the present compounds were added to various wells on a plate, followed by a range of concentrations of agonist for each concentration of present compound; the EC50 values for the agonist at each concentration of compound were determined by non-linear curve fitting. A decrease in the EC50 value of the agonist with increasing concentrations of the present compounds (a leftward shift of the agonist concentration-response curve) is an indication of the degree of mGluR5 potentiation at a given concentration of the present compound. An increase in the EC50 value of the agonist with increasing concentrations of the present compounds (a rightward shift of the agonist concentration-response curve) is an indication of the degree of mGluR5 antagonism at a given concentration of the present compound. The second mode also indicates whether the present compounds also affect the maximum response to mGluR5 to agonists.\n(§3) Human embryonic kidney (HEK) cells transfected with rat mGluR5 were plated in clear-bottomed, poly-D-lysine-coated assay plates in glutamate-glutamine-free medium growth and incubated overnight at 37° C. in 5% CO2. The following day, cells were loaded with 2 μM calcium indicator dye, fluo-4 AM, for 1 h at 37° C. Dye was removed and replaced with assay buffer containing 1× Hanks balanced salt solution (Invitrogen, Carlsbad, Calif.), 20 mM HEPES, and 2.5 mM probenecid, pH 7.4. Cell plates were then loaded into the Functional Drug Screening System 6000 (FDSS 6000, Hamamatsu, Japan). After establishment of a fluorescence baseline for twelve seconds, the compounds of the present invention were added to the cells, and the response in cells was measured. Five minutes later, an mGluR5 agonist (e.g., glutamate, 3,5-dihydroxyphenylglycine, or quisqualate) was added to the cells, and the response of the cells was measured during a 1 minute incubation with agonists. Typically, the effect of test compounds of the present invention was on an EC20 concentration of glutamate was measured. All test compounds were dissolved and diluted in 100% DMSO and then serially diluted into assay buffer for a 2.5× stock in 0.25% DMSO; stock compounds were then added to the assay for a final DMSO concentration of 0.1%. Calcium fluorescence measures were recorded as fold over basal fluorescence; raw data was then normalized to the maximal response to agonist. Potentiation of the agonist response of mGluR5 by the compounds in the present invention was observed as an increase in response to non-maximal concentrations of agonist (here, glutamate) in the presence of compound compared to the response to agonist in the absence of compound. […]", "units": {"Emax": "%"}, "values": [
      {"smiles": "O=C(c1ccc(C#Cc2cccc(F)c2)cc1)N1CC(O)C1", "note": "[Compound 20n, (4-((3-fluorophenyl)ethynyl)phenyl)(3-hydroxyazetidin-1-yl)methanone]", "Emax": 104},
      {"smiles": "O=C(c1ccc(C#Cc2ccc(F)cc2)cc1)N1CC(O)C1", "note": "[Compound 20o, (4-((4-fluorophenyl)ethynyl)phenyl)(3-hydroxyazetidin-1-yl)methanone]", "Emax": 103},
      {"smiles": "O=C(c1ccc(C#Cc2ccc(F)c(F)c2)cc1)N1CC(O)C1", "note": "[Compound 20p, (4-((3,4-difluorophenyl)ethynyl)phenyl)(3-hydroxyazetidin-1-yl)methanone]", "Emax": 88}
    ]},
    {"molecular_target": "T1, rat mGluR5", "assay": "potentiation of mGluR5 response to glutamate, Ca2+ fluorescence (FDSS) in HEK cells transfected with rat mGluR5", "format": "cell-based", "settings": "Table 1, EC50 for potentiating the mGluR5 receptor; unit inferred; read-out: EC50", "experimental": "as §1, §2, §3", "units": {"EC50": "nM"}, "values": [
      {"smiles": "O=C(c1ccc(C#Cc2cccc(F)c2)cc1)N1CC(O)C1", "note": "[Compound 20n, (4-((3-fluorophenyl)ethynyl)phenyl)(3-hydroxyazetidin-1-yl)methanone]", "EC50": 73},
      {"smiles": "O=C(c1ccc(C#Cc2ccc(F)cc2)cc1)N1CC(O)C1", "note": "[Compound 20o, (4-((4-fluorophenyl)ethynyl)phenyl)(3-hydroxyazetidin-1-yl)methanone]", "EC50": 162},
      {"smiles": "O=C(c1ccc(C#Cc2ccc(F)c(F)c2)cc1)N1CC(O)C1", "note": "[Compound 20p, (4-((3,4-difluorophenyl)ethynyl)phenyl)(3-hydroxyazetidin-1-yl)methanone]", "EC50": 387},
      {"smiles": "O=C(NC1CCc2ccccc21)c1ccc(C#Cc2ccccc2)cc1", "note": "(centres unmarked) [N-(2,3-dihydro-1H-inden-1-yl)-4-(phenylethynyl)benzamide]", "EC50": 146},
      {"smiles": "O=C(NC1Cc2ccccc2C1)c1ccc(C#Cc2ccccc2)cc1", "note": "[N-(2,3-dihydro-1H-inden-2-yl)-4-(phenylethynyl)benzamide]", "EC50": 159},
      {"smiles": "CN1CCCC1CCNC(=O)c1ccc(C#Cc2ccccc2)cc1", "note": "(centres unmarked) [N-(2-(1-methylpyrrolidin-2-yl)ethyl)-4-(phenylethynyl)benzamide]", "EC50": 3530},
      {"smiles": "CN(C)CCNC(=O)c1ccc(C#Cc2ccccc2)cc1", "note": "[N-(2-(dimethylamino)ethyl)-4-(phenylethynyl)benzamide]", "EC50": 2990},
      {"smiles": "O=C(NCCc1ccccc1Cl)c1ccc(C#Cc2ccccc2)cc1", "note": "[N-(2-chlorophenethyl)-4-(phenylethynyl)benzamide]", "EC50": 135},
      {"smiles": "O=C(NCCC1=CCCCC1)c1ccc(C#Cc2ccccc2)cc1", "note": "[N-(2-cyclohexenylethyl)-4-(phenylethynyl)benzamide]", "EC50": 75.3},
      {"smiles": "O=C(NCCN1CCOCC1)c1ccc(C#Cc2ccccc2)cc1", "note": "[N-(2-morpholinoethyl)-4-(phenylethynyl)benzamide]", "EC50": 137},
      {"smiles": "CC(C)(C)CCNC(=O)c1ccc(-c2nc(-c3ccccc3)no2)cc1", "note": "[N-(3,3-dimethylbutyl)-4-(3-phenyl-1,2,4-oxadiazol-5-yl)benzamide]", "EC50": 1160},
      {"smiles": "CC(C)(C)CCNC(=O)c1ccc(C#Cc2ccccc2)cc1", "note": "[N-(3,3-dimethylbutyl)-4-(phenylethynyl)benzamide]", "EC50": 19.4},
      {"smiles": "O=C(NCCc1cccc(Cl)c1)c1ccc(C#Cc2ccccc2)cc1", "note": "[N-(3-chlorophenethyl)-4-(phenylethynyl)benzamide]", "EC50": 206},
      {"smiles": "O=C(NCCCO)c1ccc(C#Cc2ccccc2)cc1", "note": "[N-(3-hydroxypropyl)-4-(phenylethynyl)benzamide]", "EC50": 86.2},
      {"smiles": "O=C(NCCCN1CCOCC1)c1ccc(C#Cc2ccccc2)cc1", "note": "[N-(3-morpholinopropyl)-4-(phenylethynyl)benzamide]", "EC50": 1230},
      {"smiles": "O=C(NCCc1ccc(Br)cc1)c1ccc(C#Cc2ccccc2)cc1", "note": "[N-(4-bromophenethyl)-4-(phenylethynyl)benzamide]", "EC50": 237}
    ]},
    {"molecular_target": "T1, rat mGluR5", "assay": "potentiation of mGluR5 response to glutamate, Ca2+ fluorescence (FDSS) in HEK cells transfected with rat mGluR5", "format": "cell-based", "settings": "potentiation of glutamate response, HEK cells transfected with rat mGluR5; SAR tables", "experimental": "as §1, §2, §3", "values": [
      {"smiles": "Cc1ccc(C#Cc2ccc(C(=O)N3CCC(O)CC3)cc2)cc1", "note": "[Compound 19h]", "EC50 (nM)": "inactive"}
    ]},
    {"molecular_target": "T1, rat mGluR5", "assay": "potentiation of mGluR5 response to glutamate, Ca2+ fluorescence (FDSS) in HEK cells transfected with rat mGluR5", "format": "cell-based", "settings": "potentiation of glutamate response, HEK cells transfected with rat mGluR5; SAR tables; read-out: EC50", "experimental": "as §1, §2, §3", "units": {"EC50": "nM"}, "values": [
      {"smiles": "O=C(c1ccc(C#Cc2cccc(F)c2)cc1)N1CC(O)C1", "note": "[Compound 20n, (4-((3-fluorophenyl)ethynyl)phenyl)(3-hydroxyazetidin-1-yl)methanone]", "EC50": 59.5},
      {"smiles": "O=C(c1ccc(C#Cc2ccc(F)cc2)cc1)N1CC(O)C1", "note": "[Compound 20o, (4-((4-fluorophenyl)ethynyl)phenyl)(3-hydroxyazetidin-1-yl)methanone]", "EC50": 155},
      {"smiles": "O=C(c1ccc(C#Cc2ccc(F)c(F)c2)cc1)N1CC(O)C1", "note": "[Compound 20p, (4-((3,4-difluorophenyl)ethynyl)phenyl)(3-hydroxyazetidin-1-yl)methanone]", "EC50": 314}
    ]}
  ]
}
